Legend:
Test in all cases: Tyrosine kinase inhibition assay
Format in all cases: biochemical
Conditions in all cases: for inhibition at 1 µM: single concentration 1.0 μM, read-out: percent inhibition; for IC50: read-out: IC50 of compound
MERTK (cMER) = target: T1, MERTK (cMER) (Homo sapiens, UniProt Q12866)
T1 sequence (Q12866 21-999): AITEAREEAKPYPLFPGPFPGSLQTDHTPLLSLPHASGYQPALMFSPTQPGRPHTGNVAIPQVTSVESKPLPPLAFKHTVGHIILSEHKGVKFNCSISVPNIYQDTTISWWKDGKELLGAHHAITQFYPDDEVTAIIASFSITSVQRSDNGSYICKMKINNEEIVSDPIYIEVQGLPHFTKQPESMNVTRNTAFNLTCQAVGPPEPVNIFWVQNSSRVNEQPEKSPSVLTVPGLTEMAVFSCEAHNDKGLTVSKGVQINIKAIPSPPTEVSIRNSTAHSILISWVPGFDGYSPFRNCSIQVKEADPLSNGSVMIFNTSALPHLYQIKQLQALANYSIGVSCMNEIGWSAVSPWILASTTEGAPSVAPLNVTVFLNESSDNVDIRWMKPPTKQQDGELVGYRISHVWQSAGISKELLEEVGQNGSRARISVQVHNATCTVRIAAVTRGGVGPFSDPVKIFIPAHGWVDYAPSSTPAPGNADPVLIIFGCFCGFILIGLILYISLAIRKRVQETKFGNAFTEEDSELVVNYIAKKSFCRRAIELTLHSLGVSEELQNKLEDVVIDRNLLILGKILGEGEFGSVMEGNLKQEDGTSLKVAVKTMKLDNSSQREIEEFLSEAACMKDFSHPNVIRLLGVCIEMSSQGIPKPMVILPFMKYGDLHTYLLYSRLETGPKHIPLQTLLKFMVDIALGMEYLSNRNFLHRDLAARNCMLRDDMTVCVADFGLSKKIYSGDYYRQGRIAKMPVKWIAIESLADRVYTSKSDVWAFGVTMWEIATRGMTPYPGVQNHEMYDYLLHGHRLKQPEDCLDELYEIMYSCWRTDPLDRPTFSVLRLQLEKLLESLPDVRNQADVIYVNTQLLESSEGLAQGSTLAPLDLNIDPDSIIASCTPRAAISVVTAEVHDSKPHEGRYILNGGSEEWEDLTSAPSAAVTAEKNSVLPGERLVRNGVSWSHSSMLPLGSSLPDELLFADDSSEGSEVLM
Procedure: (§1) Tyrosine kinase inhibition assays were performed at ThermoFisher Life Technologies (Madison, WI, USA) using standard protocols (SelectScreen Biochemical Profiling Service, Thermo Fisher Scientific). ATP concentrations used were at the apparent Km. Test compounds were screened in 1% dimethylsulffoxide (DMSO) (final concentration) in the well. For 10-point titrations, 3-fold serial dilutions were conducted from the starting concentration of […]. All Peptide/Kinase Mixtures were diluted to a 2× working concentration in the appropriate Kinase Buffer. All ATP Solutions were diluted to a 4× working concentration in Kinase Buffer (50 mM HEPES pH 7.5, 0.01% BRIJ-35, 10 mM MgCl2, 1 mM EGTA). The apparent ATP Km was previously determined using a Z′-LYTE assay. The Development Reagent was diluted in Development Buffer.
(§2) The inhibition activities of compounds were determined in biochemical assays using single concentration (1.0 μM) measurements. The results were provided as percent inhibition values.

KDR (VEGFR2) = KDR (VEGFR2) (Homo sapiens, UniProt P35968)
Sequence of KDR (VEGFR2) (P35968 20-1356): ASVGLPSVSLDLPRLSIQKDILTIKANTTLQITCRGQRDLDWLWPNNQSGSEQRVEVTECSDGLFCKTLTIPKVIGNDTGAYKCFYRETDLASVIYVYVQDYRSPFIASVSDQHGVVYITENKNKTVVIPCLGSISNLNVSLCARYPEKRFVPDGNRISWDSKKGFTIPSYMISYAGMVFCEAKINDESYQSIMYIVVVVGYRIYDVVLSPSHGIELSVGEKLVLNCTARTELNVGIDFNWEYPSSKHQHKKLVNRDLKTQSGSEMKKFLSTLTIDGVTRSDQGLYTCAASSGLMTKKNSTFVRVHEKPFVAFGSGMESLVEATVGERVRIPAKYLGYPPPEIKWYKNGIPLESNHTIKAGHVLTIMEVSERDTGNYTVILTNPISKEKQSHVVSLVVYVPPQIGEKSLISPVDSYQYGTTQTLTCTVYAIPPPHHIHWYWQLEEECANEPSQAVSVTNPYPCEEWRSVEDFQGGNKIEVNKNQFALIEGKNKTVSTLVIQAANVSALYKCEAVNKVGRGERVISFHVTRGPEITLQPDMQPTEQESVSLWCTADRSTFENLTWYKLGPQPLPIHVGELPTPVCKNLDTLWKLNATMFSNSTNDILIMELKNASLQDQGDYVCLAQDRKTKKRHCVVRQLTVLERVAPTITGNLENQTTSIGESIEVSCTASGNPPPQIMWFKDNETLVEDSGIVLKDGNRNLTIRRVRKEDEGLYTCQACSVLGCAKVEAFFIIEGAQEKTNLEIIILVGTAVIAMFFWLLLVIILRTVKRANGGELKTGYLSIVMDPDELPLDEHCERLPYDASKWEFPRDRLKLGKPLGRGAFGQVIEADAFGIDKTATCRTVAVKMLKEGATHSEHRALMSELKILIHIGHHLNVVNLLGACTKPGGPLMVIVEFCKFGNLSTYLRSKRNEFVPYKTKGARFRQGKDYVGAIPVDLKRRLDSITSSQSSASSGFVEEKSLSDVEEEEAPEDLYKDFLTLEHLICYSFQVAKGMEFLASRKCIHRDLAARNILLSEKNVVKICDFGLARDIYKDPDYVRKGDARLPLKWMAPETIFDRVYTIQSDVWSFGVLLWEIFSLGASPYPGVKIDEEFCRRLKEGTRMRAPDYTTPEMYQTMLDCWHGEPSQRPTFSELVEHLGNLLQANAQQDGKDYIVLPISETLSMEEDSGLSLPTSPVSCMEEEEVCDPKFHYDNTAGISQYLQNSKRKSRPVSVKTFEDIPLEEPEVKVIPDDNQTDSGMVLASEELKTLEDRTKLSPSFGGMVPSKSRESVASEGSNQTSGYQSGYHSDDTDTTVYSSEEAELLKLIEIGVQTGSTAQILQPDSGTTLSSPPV
Procedure: as §1, §2

AXL = target: T2, AXL (Homo sapiens, UniProt P30530)
T2 sequence (P30530 26-894): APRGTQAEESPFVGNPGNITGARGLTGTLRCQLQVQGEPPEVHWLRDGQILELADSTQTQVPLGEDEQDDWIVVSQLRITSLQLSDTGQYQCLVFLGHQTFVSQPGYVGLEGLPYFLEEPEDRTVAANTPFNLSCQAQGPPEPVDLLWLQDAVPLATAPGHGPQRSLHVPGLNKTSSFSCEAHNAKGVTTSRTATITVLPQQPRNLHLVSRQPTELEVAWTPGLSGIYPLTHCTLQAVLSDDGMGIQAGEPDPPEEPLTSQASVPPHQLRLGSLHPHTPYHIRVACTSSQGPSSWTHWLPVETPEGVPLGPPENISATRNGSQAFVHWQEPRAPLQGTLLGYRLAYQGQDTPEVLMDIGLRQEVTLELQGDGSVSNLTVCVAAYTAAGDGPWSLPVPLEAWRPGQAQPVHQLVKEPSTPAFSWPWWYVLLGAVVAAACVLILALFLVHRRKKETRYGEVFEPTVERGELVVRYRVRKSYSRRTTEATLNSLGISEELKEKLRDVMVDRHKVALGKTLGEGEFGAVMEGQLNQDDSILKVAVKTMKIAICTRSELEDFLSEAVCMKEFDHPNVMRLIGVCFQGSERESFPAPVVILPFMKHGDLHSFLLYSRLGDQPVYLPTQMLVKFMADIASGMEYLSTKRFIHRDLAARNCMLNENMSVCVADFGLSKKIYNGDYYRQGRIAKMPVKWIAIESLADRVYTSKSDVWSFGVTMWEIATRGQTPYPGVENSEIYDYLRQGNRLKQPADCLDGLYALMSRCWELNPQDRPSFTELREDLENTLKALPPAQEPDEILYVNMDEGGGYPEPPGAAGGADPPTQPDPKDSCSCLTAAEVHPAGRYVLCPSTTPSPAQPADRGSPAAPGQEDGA
Procedure: as §1, §2

## COc1cc2nccc(Oc3ccc(NC(=O)C4(NC(=O)c5ccc(F)cc5)CC4)cc3F)c2cc1OC [Cbo-02, N-(1-((4-((6,7-diMethoxyquinolin-4-yl)oxy)-3-fluorophenyl)carbamoyl)cyclopropyl)-4-fluorobenzamide]
MERTK (cMER)
  inhibition at 1 µM: 100%
KDR (VEGFR2)
  inhibition at 1 µM: 96%
AXL
  inhibition at 1 µM: 91%

## COc1cc2nccc(Oc3ccc(NC(=O)C4(NC(=O)c5ccc(F)cc5)CC4)cc3F)c2cc1Oc1ccc(N)cc1F [Cbo-10]
MERTK (cMER)
  inhibition at 1 µM: 95%
KDR (VEGFR2)
  inhibition at 1 µM: 98%
AXL
  inhibition at 1 µM: 98%

## COc1cc2nccc(Oc3ccc(NC(=O)C4(NC(=O)c5ccc(F)cc5)CC4)cc3F)c2cc1Oc1c(F)cc(N)cc1F [Cbo-14]
MERTK (cMER)
  inhibition at 1 µM: 97%
KDR (VEGFR2)
  inhibition at 1 µM: 100%
AXL
  inhibition at 1 µM: 96%

## COc1cc2nccc(Oc3ccc(NC(=O)C4(C(=O)Nc5ccc(F)cc5)CC4)cc3F)c2cc1Oc1ccc(N)cc1F [Cbo-23]
MERTK (cMER)
  IC50: 3.72 nM
  inhibition at 1 µM: 98%
KDR (VEGFR2)
  IC50: 29.2 nM
  inhibition at 1 µM: 98%
AXL
  IC50: 5.42 nM
  inhibition at 1 µM: 106%

## CNC(=O)c1cc2c(Oc3ccc(NC(=O)C4(C(=O)Nc5ccc(F)cc5)CC4)cc3)ccnc2cc1OC [Zanzalintinib, reference compound]
MERTK (cMER)
  IC50: 6.96 nM
KDR (VEGFR2)
  IC50: 2.43 nM
AXL
  IC50: 1.41 nM
